Assay results reported in PubChem BioAssay AID248 (DTP/NCI, 2004).
Values joined by “and” are separate entries in the source; they are usually repeats but may differ in a detail not shown here. Equal entries are not always repeated. Inconclusive results and toxic doses are left out. No stated cut-off is given here; in the data, active means T/C of 150% or more; inactive means T/C below 125%.

Test system: L1210 leukemia ip in BDF1 mice, survival T/C
Assay: NCI In Vivo Anticancer Drug Screen. Data for tumor model L1210 Leukemia (intraperitoneal) in B6D2F1 (BDF1) mice
Conditions: endpoint: mean survival time, higher = longer survival
Summary of the method: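 Read-out is survival time, reported as the treated-group measurement over the vehicle-control measurement.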

[1] = dose: 100.0 mg/kg/injection, schedule: Q04DX003 (ip), vehicle: saline with Tween-80
[2] = dose: 200.0 mg/kg/injection, schedule: Q04DX003 (ip), vehicle: saline with Tween-80
[3] = dose: 400.0 mg/kg/injection, schedule: Q04DX003 (ip), vehicle: saline with Tween-80
[4] = dose: 100.0 mg/kg/injection, schedule: Q01DX009 (ip), vehicle: saline with Tween-80
[5] = dose: 200.0 mg/kg/injection, schedule: Q01DX009 (ip), vehicle: saline with Tween-80
[6] = dose: 100.0 mg/kg/injection, schedule: Q01DX009 (ip), vehicle: Klucel (hydroxypropylcellulose) (HPC)
[7] = dose: 200.0 mg/kg/injection, schedule: Q01DX009 (ip), vehicle: Klucel (hydroxypropylcellulose) (HPC)
[8] = dose: 25.0 mg/kg/injection, schedule: Q01DX009 (ip), vehicle: saline with Tween-80
[9] = dose: 50.0 mg/kg/injection, schedule: Q01DX009 (ip), vehicle: saline with Tween-80
[10] = dose: 100.0 mg/kg/injection, schedule: Q01DX001 (ip), vehicle: saline
[11] = dose: 100.0 mg/kg/injection, schedule: Q04DX003 (ip), vehicle: Klucel (hydroxypropylcellulose) (HPC)
[12] = dose: 200.0 mg/kg/injection, schedule: Q04DX003 (ip), vehicle: Klucel (hydroxypropylcellulose) (HPC)
[13] = dose: 400.0 mg/kg/injection, schedule: Q04DX003 (ip), vehicle: Klucel (hydroxypropylcellulose) (HPC)

Measured: T/C

COc1ccccc1CN1CCCOP1(=O)Nc1ccccc1C (centres undefined)
inactive: dose: 50.0 mg/kg/injection, schedule: Q01DX001 (ip), vehicle: carboxymethylcellulose (CMC) 109 % of control | dose: 100.0 mg/kg/injection, schedule: Q01DX001 (ip), vehicle: carboxymethylcellulose (CMC) 93 % of control | dose: 200.0 mg/kg/injection, schedule: Q01DX001 (ip), vehicle: carboxymethylcellulose (CMC) 96 % of control | dose: 400.0 mg/kg/injection, schedule: Q01DX001 (ip), vehicle: carboxymethylcellulose (CMC) 91 % of control

OCCCCCCCCCCCC[n+]1ccccc1
inactive: dose: 87.5 mg/kg/injection, schedule: Q01DX001 (ip), vehicle: saline 105 % of control

CC(C)(C)NC(=O)CCC(CC(=O)NC(C)(C)C)C1([N+](=O)[O-])CCCCC1 (centres undefined)
inactive: [1] 92 % of control | [2] 91 % of control | [3] 86 % of control

Cc1cc(CC(O)(C(F)(F)Cl)C(F)(F)Cl)cc(C)n1
inactive: [4] 97 % of control | [5] 94 % of control | dose: 400.0 mg/kg/injection, schedule: Q01DX009 (ip), vehicle: saline with Tween-80 95 % of control

COc1cc([N+](=O)[O-])ccc1NC(=O)Nc1cccc(C(F)(F)F)c1
inactive: dose: 100.0 mg/kg/injection, schedule: Q01DX009 (ip), vehicle: gum acacia 92 % of control | dose: 200.0 mg/kg/injection, schedule: Q01DX009 (ip), vehicle: gum acacia 92 % of control

O=P(Cc1ccccc1)(Oc1ccccc1)Oc1ccccc1
inactive: [6] 91 % of control | [7] 94 % of control | dose: 400.0 mg/kg/injection, schedule: Q01DX009 (ip), vehicle: Klucel (hydroxypropylcellulose) (HPC) 91 % of control

O=C(O)c1c(Cl)cccc1Cl
inactive: [8] 92 % of control | [9] 93 % of control | [4] 93 % of control and 87 % of control | [1] 98 % of control | [2] 95 % of control | [3] 95 % of control

O=C(COc1ccc(Cl)cc1Cl)OCCBr
inactive: dose: 100.0 mg/kg/injection, schedule: Q04DX002 (ip), vehicle: other 96 % of control | dose: 200.0 mg/kg/injection, schedule: Q04DX002 (ip), vehicle: other 118 % of control | dose: 400.0 mg/kg/injection, schedule: Q04DX002 (ip), vehicle: other 93 % of control

CC(=O)NNc1ccnc(SCc2ccccc2)n1
inactive: dose: 100.0 mg/kg/injection, schedule: Q04DX003 (ip), vehicle: gum acacia 94 % of control | dose: 200.0 mg/kg/injection, schedule: Q04DX003 (ip), vehicle: gum acacia 87 % of control | dose: 400.0 mg/kg/injection, schedule: Q04DX003 (ip), vehicle: gum acacia 94 % of control

Ic1ccccc1CNCCc1ccccc1
inactive: dose: 75.0 mg/kg/injection, schedule: Q01DX001 (ip), vehicle: other 93 % of control | dose: 150.0 mg/kg/injection, schedule: Q01DX001 (ip), vehicle: other 96 % of control | dose: 300.0 mg/kg/injection, schedule: Q01DX001 (ip), vehicle: other 96 % of control

CN1CCN(CCCN2c3ccccc3Sc3ccc(C(F)(F)F)cc32)CC1
inactive: dose: 3.12 mg/kg/injection, schedule: Q01DX009 (ip), vehicle: saline 93 % of control | dose: 6.25 mg/kg/injection, schedule: Q01DX009 (ip), vehicle: saline 98 % of control and 104 % of control and 118 % of control | dose: 9.0 mg/kg/injection, schedule: Q04DX003 (ip), vehicle: saline with Tween-80 112 % of control | dose: 9.3 mg/kg/injection, schedule: Q01DX009 (ip), vehicle: saline 101 % of control | dose: 10.0 mg/kg/injection, schedule: Q01DX009 (ip), vehicle: saline with Tween-80 106 % of control | dose: 12.5 mg/kg/injection, schedule: Q01DX009 (ip), vehicle: saline 113 % of control and 106 % of control | dose: 12.5 mg/kg/injection, schedule: Q04DX003 (ip), vehicle: saline 102 % of control | dose: 15.0 mg/kg/injection, schedule: Q01DX009 (ip), vehicle: saline with Tween-80 101 % of control | dose: 18.0 mg/kg/injection, schedule: Q01DX001 (ip), vehicle: saline with Tween-80 104 % of control | dose: 18.0 mg/kg/injection, schedule: Q04DX003 (ip), vehicle: saline with Tween-80 117 % of control | dose: 18.7 mg/kg/injection, schedule: Q01DX009 (ip), vehicle: saline 114 % of control | dose: 18.75 mg/kg/injection, schedule: Q04DX003 (ip), vehicle: saline 106 % of control | dose: 20.0 mg/kg/injection, schedule: Q04DX003 (ip), vehicle: saline with Tween-80 111 % of control | dose: 22.0 mg/kg/injection, schedule: Q01DX009 (ip), vehicle: saline with Tween-80 118 % of control | dose: 25.0 mg/kg/injection, schedule: Q01DX009 (ip), vehicle: acetone 107 % of control | [8] 108 % of control | dose: 25.0 mg/kg/injection, schedule: Q01DX009 (ip), vehicle: saline 102 % of control and 109 % of control | dose: 25.0 mg/kg/injection, schedule: Q04DX003 (ip), vehicle: acetone 100 % of control | dose: 25.0 mg/kg/injection, schedule: Q04DX003 (ip), vehicle: saline 103 % of control [middle of 4 runs] | dose: 30.0 mg/kg/injection, schedule: Q04DX003 (ip), vehicle: saline with Tween-80 119 % of control | dose: 33.0 mg/kg/injection, schedule: Q01DX009 (ip), vehicle: saline with Tween-80 123 % of control | dose: 37.0 mg/kg/injection, schedule: Q01DX001 (ip), vehicle: saline with Tween-80 104 % of control | dose: 37.5 mg/kg/injection, schedule: Q04DX003 (ip), vehicle: saline 96 % of control | dose: 44.0 mg/kg/injection, schedule: Q04DX003 (ip), vehicle: saline with Tween-80 116 % of control | dose: 50.0 mg/kg/injection, schedule: Q01DX009 (ip), vehicle: acetone 120 % of control | dose: 50.0 mg/kg/injection, schedule: Q04DX003 (ip), vehicle: acetone 100 % of control | dose: 50.0 mg/kg/injection, schedule: Q04DX003 (ip), vehicle: saline 111 % of control [middle of 4 runs] | dose: 66.0 mg/kg/injection, schedule: Q04DX003 (ip), vehicle: saline with Tween-80 108 % of control | dose: 75.0 mg/kg/injection, schedule: Q01DX001 (ip), vehicle: saline with Tween-80 113 % of control | dose: 75.0 mg/kg/injection, schedule: Q04DX003 (ip), vehicle: saline with Tween-80 119 % of control | dose: 75.0 mg/kg/injection, schedule: Q04DX003 (ip), vehicle: saline 102 % of control | [10] 101 % of control | dose: 100.0 mg/kg/injection, schedule: Q01DX009 (ip), vehicle: acetone 113 % of control | dose: 100.0 mg/kg/injection, schedule: Q04DX003 (ip), vehicle: acetone 121 % of control | dose: 100.0 mg/kg/injection, schedule: Q04DX003 (ip), vehicle: saline 99 % of control and 112 % of control | dose: 150.0 mg/kg/injection, schedule: Q01DX001 (ip), vehicle: saline with Tween-80 90 % of control

O=C(Nc1ccccn1)Nc1ccccn1
inactive: [6] 104 % of control | [11] 98 % of control | [7] 104 % of control | [12] 87 % of control | [13] 106 % of control

COC(=O)C(NC(=O)C(C)NC(=O)OC(C)(C)C)C(C)O (centres undefined)
inactive: [10] 101 % of control | dose: 200.0 mg/kg/injection, schedule: Q01DX001 (ip), vehicle: saline 99 % of control | dose: 400.0 mg/kg/injection, schedule: Q01DX001 (ip), vehicle: saline 101 % of control

Clc1ccccc1C=C1c2ccccc2-c2ccccc21
inactive: [11] 103 % of control | [12] 100 % of control | [13] 96 % of control

O=C(/C=C/c1ccccc1)c1ccc(Cl)c(Cl)c1
inactive: [9] 101 % of control | [4] 101 % of control | [5] 97 % of control

Cc1ccc(C(=O)CCCc2ccccn2)cc1
inactive: dose: 222.0 mg/kg/injection, schedule: Q01DX Z (ip), vehicle: methylcellulose (MC) 98 % of control | dose: 333.0 mg/kg/injection, schedule: Q01DX Z (ip), vehicle: methylcellulose (MC) 100 % of control | dose: 500.0 mg/kg/injection, schedule: Q01DX Z (ip), vehicle: methylcellulose (MC) 87 % of control
